Read-outs that look alike come from different tables or passages of the source.
What was measured:
Type in all cases: cell-based
[1] = system: JIMT-1 breast cancer cells; assay: MTT dose response assay, JIMT-1; details: Homo sapiens, JIMT-1, 72 h
[2] = system: MCF-10A normal-like breast epithelial cells; assay: MTT dose response assay, MCF-10A; details: Homo sapiens, 72 h
[3] = system: MCF-7 breast cancer cells; assay: MTT dose response assay, MCF-7; details: Homo sapiens, MCF7, 72 h
[4] = read-out: IC50 (mean of three repeats ± SD)

| IC50 [1, 4] | IC50 [1] | IC50 [3] | Compound | IC50 [2, 4] | IC50 [2] |
| --- | --- | --- | --- | --- | --- |
| 11.1 µM | – | – | C=C[C@@]12COC(=O)C(=C)[C@@H]1[C@@H](O)[C@H](C(=C)C(=O)OC)[C@@H](OC(=O)C(=C)CO)C2 [Vernodalol, reference compound] | 12.1 µM | – |
| – | 1.7 ± 0.3 µM | 15.9 ± 0.6 µM | C=C[C@@]12COC(=O)C(=C)[C@@H]1[C@H]1OC(=O)C(=C)[C@@H]1[C@@H](O)C2 [Vernolepin (5), Vernolepin] | – | 2.3 ± 0.2 µM |

Source: PMC8920872 (Toxicology Reports, 2022)
